Earlier results in patent publication US8633332B2, “Efficient isolation of cimiracemate A, and methods of use” (Purapharm Company Limited, priority 2009, dated 2014).
Entries after “also recorded” stand apart in the source; their conditions may differ.

Legend:
[1] = tested on: specific transcription factors; conditions: human macrophages, LPS-induced
TNF-α = conditions: human macrophages
MAP kinase = conditions: human macrophages

For `COc1ccc(/C=C/C(=O)OCC(=O)Cc2ccc(O)c(O)c2)cc1O` [Cimiracemate A], the “inhibition of activation of specific transcription factors” value [1] is listed as “suppresses; also recorded: inhibit”, the “suppression of LPS-induced TNF-α production” value (TNF-α) is listed as “suppresses; also recorded: suppress” and the “inhibition of LPS-induced MAP kinase activities (specific kinase phosphorylation)” value (MAP kinase) is listed as “suppresses; also recorded: inhibit”.
